Legend:
[1] = parameters: method as in PMID 24285187, PMID 24470629; conditions: pH 7.4; cited from earlier work
MC-I [2] = target: MC-I; parameters: method as in PMID 24285187, PMID 24470629; conditions: affinity to MC-I; cited from earlier work
[3] = system: mitochondrial complex I (MC-I); parameters: method as in PMID 24470629; conditions: with time, significant at the later phase of 60 min after injection; cited from earlier work
[4] = system: mitochondrial complex I (MC-I); assay: PET kinetics and distribution of 18F-BCPP-BF in rat abdominal organs; assay type: in vivo
Procedure: (§1) Four animals per group were used for PET imaging.
(§2) Rats anesthetized by 1.5–2.0% isoflurane in O2 were positioned prone on a fixation plate and placed in the gantry hole of the PET scanner (SHR-7700, Hamamatsu Photonics, Hamamatsu, Japan). After a transmission scan for 15 min using a ^68Ge-^68Ga rotation rod source, ^18F-BCPP-BF at ca. 15 MBq was intravenously injected into each rat via the tail vein, and this was followed by an emission scan with list mode data acquisition (every 1 ms) for 90 min. The body temperature of each animal was monitored to record throughout the study using a Thermo-Hygro Recorder (TR-72Ui, T&D Corporation, Matsumoto, Japan).
(§3) The PET data obtained were reconstructed by Dynamic RAMLA (DRAMA) method with a Gauss filter of 1.0-mm FWHM and attenuation correction using the transmission scan data. Dynamic images every 2 min for the time activity curve (TAC) as well as summation images in the early (from 15 to 30 min after ^18F-BCPP-BF injection) and late (from 70 to 90 min) phases were reconstructed. Since there were no information on the TACs of ^18F-BCPP-BF in the liver and kidney, we conducted PET data acquisition up to 90 min after the injection.
(§4) Standard uptake value (SUV) images were created as follows: SUV=CTWs/Dinj
(§5) where C T is the tissue radioactivity (Bq/mL) obtained from PET images, W s is the body weight (g) of the rat being examined, and D inj is the injected dose (Bq) of ^18F-BCPP-BF. Each summation SUV image was superimposed on the corresponding X-CT images obtained using ClairvivoCT (Shimadzu Corporation, Kyoto, Japan). Volumes of interest (VOIs) were selected on summation images of the kidney (renal cortex and pelvis) and liver in the early (from 15 to 30 min) and late (from 70 to 90 min) phases and TACs were obtained from dynamic image data in each organ as SUV by setting the early phase VOIs.

kidney = assay: biochemical parameters for renal function in urine and serum after acetaminophen; assay type: in vivo, rat
Procedure: (§6) In a separate study from PET measurements, physiological and biochemical assessments were conducted on four animals for each time and dosing condition. Body weight measurements, urine collection, and blood sampling were conducted 2, 6, and 24 h after the administration of acetaminophen. A rat was placed in a metabolic cage on a 12/12-h light/dark cycle, and urine samples were collected for 24 h and centrifuged to remove suspended material, and the supernatants were analyzed to measure total protein, creatinine, and N-acetyl-β-D-glucosaminidase (NAG) using a biochemical automatic analyzer (JCA-BM6010, JEOL Ltd., Tokyo, Japan). Blood sample was collected from the tail vein, and the serum fraction separated from the blood was used in assay of alanine aminotransferase (ALT), aspartate aminotransferase (AST), lactate dehydrogenase (LDH), bilirubin (BIL), and BUN using a biochemical automatic analyzer (JCA-BM6010, JEOL Ltd., Tokyo, Japan).

[5] = system: mitochondrial complex I (MC-I); assay: effects of acetaminophen on MC-I activity (18F-BCPP-BF uptake, PET); assay type: in vivo, rat
Procedure: In order to evaluate the acute effects of acetaminophen, vehicle or acetaminophen at a dose of 100 or 300 mg/kg in 10 mL/kg of vehicle (saline containing 20% Tween-80) was intraperitoneally administered 2 or 24 h before the PET probe injection.
as §2, §3, §4, §5

liver [6] = assay: biochemical parameters for hepatic function in serum after acetaminophen; assay type: in vivo, rat
Procedure: as §6

liver [7] = system: liver; parameters: method as in PMID 26102222; conditions: acetaminophen 300 mg/kg, mice; cited from earlier work
[8] = system: mitochondrial complex I (MC-I); assay: binding specificity of 18F-BCPP-BF to MC-I: pre-administration of rotenone, PET; assay type: in vivo, rat; conditions: rotenone 0.1 mg/kg/h i.v. infusion for 1 h before probe
Procedure: as §1, §2, §3, §4, §5

MC-I [9] = system: MC-I; parameters: method as in PMID 24470629; conditions: rotenone 0.1 mg/kg; cited from earlier work
[10] = control rat, 15 to 30 min post-injection, i.v.
[11] = control rat, 70 to 90 min post-injection, i.v.
[12] = 24 h after acetaminophen 300 mg/kg i.p., p = 0.027
[13] = 24 h after acetaminophen 300 mg/kg i.p., p < 0.001
[14] = 24 h after acetaminophen 300 mg/kg i.p., p = 0.034

## CC(C)(C)n1ncc(OCc2ccc(OCCOCCO[11CH3])nc2)c(Cl)c1=O [^11C-BCPP-EM, 2-tert-butyl-4-chloro-5-{6-[2-(2-^11C-methoxy-ethoxy)-ethoxy]-pyridin-3-ylmethoxy}-2H-pyridazin-3-one]
[1]
  logD7.4: 2.87

## COCCOCCOc1ccc(COc2cnn(C(C)(C)C)c(=O)c2Cl)cn1 [^11C-BCPP-EM, 2-tert-butyl-4-chloro-5-{6-[2-(2-^11C-methoxy-ethoxy)-ethoxy]-pyridin-3-ylmethoxy}-2H-pyridazin-3-one]
MC-I [2]
  Ki: 4.7 nM

## CC(C)(C)n1ncc(OCc2ccc(OCCCCF)nc2)c(Cl)c1=O [^18F-BCPP-BF, 2-tert-butyl-4-chloro-5-[6-(4-^18F-fluorobutoxy)-pyridin-3-ylmethoxy]-2H-pyridazin-3-one]
MC-I [2]
  Ki: 0.7 nM

## CC(C)(C)n1ncc(OCc2ccc(OCCCC[18F])nc2)c(Cl)c1=O [^18F-BCPP-BF, 2-tert-butyl-4-chloro-5-[6-(4-^18F-fluorobutoxy)-pyridin-3-ylmethoxy]-2H-pyridazin-3-one]
[3]
  accumulation of radioactivity in bone (defluorination): slightly greater accumulation of radioactivity in bone with time
[1]
  logD7.4: 4.27
[4]; [10]
  averaged SUV, liver: 4.40 ± 0.39
  averaged SUV, renal cortex: 8.12 ± 0.69
  averaged SUV, renal pelvis: 4.17 ± 0.51
[4]; control rat, 15 to 30 min post-injection, i.v., data not shown
  averaged SUV, bladder: 0.88 ± 0.42
[4]; [11]
  averaged SUV, liver: 3.75 ± 0.38
  averaged SUV, renal cortex: 6.29 ± 0.30
  averaged SUV, renal pelvis: 4.37 ± 0.64
[4]; rat renal cortex and liver, PET TACs
  type of kinetics of the time activity curves: reversible-type kinetics

## CC(C)(C)n1ncc(OCc2ccc(OCCOCCF)nc2)c(Cl)c1=O [^18F-BCPP-EF, 2-tert-butyl-4-chloro-5-{6-[2-(2-^18F-fluoroethoxy)-ethoxy]-pyridin-3-ylmethoxy}-2H-pyridazin-3-one]
MC-I [2]
  Ki: 2.31 nM

## CC(C)(C)n1ncc(OCc2ccc(OCCOCC[18F])nc2)c(Cl)c1=O [^18F-BCPP-EF, 2-tert-butyl-4-chloro-5-{6-[2-(2-^18F-fluoroethoxy)-ethoxy]-pyridin-3-ylmethoxy}-2H-pyridazin-3-one]
[1]
  logD7.4: 3.03

## CC(=O)Nc1ccc(O)cc1 [acetaminophen]
kidney; 6 h after acetaminophen 300 mg/kg i.p., p = 0.017
  urinary protein excretion vs. 100 mg/kg: 46.9%
kidney; 6 h after acetaminophen 300 mg/kg i.p., p = 0.028
  urinary protein excretion vs. control: 56.4%
kidney; [12]
  urinary protein excretion vs. 100 mg/kg: 143.0%
  urinary protein excretion vs. control: 128.9%
kidney; serum, acetaminophen treatment, at any time
  BUN change: did not show any significant alterations
kidney; urine, 6 h after acetaminophen 300 mg/kg i.p., p < 0.001
  creatinine level vs. control: 24.3%
kidney; urine, 6 h after acetaminophen 300 mg/kg i.p., p = 0.002
  creatinine level vs. 100 mg/kg: 23.4%
kidney; urine, 24 h after acetaminophen 300 mg/kg i.p., p = 0.011
  NAG vs. control: 161.8%
kidney; urine, 24 h after acetaminophen 300 mg/kg i.p., p = 0.027
  NAG vs. 100 mg/kg: 164.8%
kidney; urine, acetaminophen 100 mg/kg i.p.
  NAG change: did not show any significant changes
[5]; acetaminophen 100 mg/kg i.p., 2 h after, SUV 15 to 30 min, p = 0.017
  18F-BCPP-BF uptake by the liver vs. control: 72.1%
[5]; acetaminophen 100 mg/kg i.p., 24 h after, SUV 15 to 30 min, p = 0.038
  18F-BCPP-BF uptake in the renal cortex vs. control: 83.4%
[5]; acetaminophen 100 mg/kg i.p., 24 h after, SUV 15 to 30 min, p = 0.049
  18F-BCPP-BF uptake by the liver vs. control: 81.4%
[5]; acetaminophen 300 mg/kg i.p., 2 h after, SUV 15 to 30 min, p = 0.003
  18F-BCPP-BF uptake by the liver vs. control: 53.9%
[5]; acetaminophen 300 mg/kg i.p., 2 h after, SUV 15 to 30 min, p = 0.025
  18F-BCPP-BF uptake in the renal cortex vs. control: 72.1%
[5]; acetaminophen 300 mg/kg i.p., 2 h after, SUV 15 to 30 min, p = 0.027
  18F-BCPP-BF uptake in the renal pelvis vs. control: 56.6%
[5]; acetaminophen 300 mg/kg i.p., 24 h after, SUV 15 to 30 min, p = 0.002
  18F-BCPP-BF uptake by the liver vs. control: 80.5%
[5]; acetaminophen 300 mg/kg i.p., 24 h after, SUV 15 to 30 min, p = 0.009
  18F-BCPP-BF uptake in the renal cortex vs. control: 79.5%
[5]; acetaminophen 300 mg/kg in rats
  reduction of MC-I activity in the liver assessed using 18F-BCPP-BF: approximately 50%
[5]; acetaminophen i.p., 24 h after, SUV 15 to 30 min
  18F-BCPP-BF uptake in the renal pelvis: no significant reduction
Liver [6]; [13]
  AST vs. the corresponding 100 mg/kg: 383.0%
  AST vs. the corresponding control: 322.3%
Liver [6]; 24 h after acetaminophen 300 mg/kg i.p., p = 0.001
  ALT vs. the corresponding control: 207.4%
Liver [6]; [14]
  BIL vs. the corresponding 100 mg/kg: 233.3%
  BIL vs. the corresponding control: 186.2%
Liver [6]; acetaminophen 100 mg/kg i.p.
  ALT level change: did not show significant changes
  AST level change: did not show significant changes
  BIL level change: did not show significant changes
Liver [6]; acetaminophen 100 or 300 mg/kg i.p., 2, 6 and 24 h
  LDH change from the control condition: did not show any significant alterations
Liver [7]
  reduction in 18F-2-DFR uptake by the liver: approximately 20%

## C=C(C)[C@H]1Cc2c(ccc3c2O[C@@H]2COc4cc(OC)c(OC)cc4[C@@H]2C3=O)O1 [rotenone]
[8]; averaged SUV 15 to 30 min, p = 0.027
  18F-BCPP-BF uptake level in renal cortex vs. control: 64.2%
[8]; averaged SUV 15 to 30 min, p = 0.038
  18F-BCPP-BF uptake level in liver vs. control: 76.9%
[8]; averaged SUV 70 to 90 min, p = 0.006
  inhibition degree of 18F-BCPP-BF uptake in renal cortex, of control: 52.2%
MC-I [9]
  inhibition of the binding of MC-I PET probes to MC-I in the heart and brain: fully inhibited
